Read-outs that look alike come from different tables or passages of the source.
How the values were obtained:
EV-D68 = experiment: microbe, parasite or virus in culture; format: cell-based, enterovirus D68 (EV-D68); conditions: Enterovirus D, EVD68, RD
EV-A71 = experiment: microbe, parasite or virus in culture; format: cell-based, enterovirus A71 (EV-A71); conditions: Enterovirus A, EVA71, RD
CVB3 Nancy virus = experiment: microbe, parasite or virus in culture; format: cell-based, coxsackievirus B3 (CVB3); conditions: Enterovirus B, CVB3, Vero, read-out: EC50, Anti-CVB3 in Vero cells
[1] = tested on: EV-A71 Tainan/4643/1998 2C protein; format: binding
CVB3 Nancy 2C protein = CVB3 Nancy 2C protein (Coxsackievirus B3, UniProt P03313); format: binding
Chain of CVB3 Nancy 2C protein (P03313 1101-1429 limits assumed): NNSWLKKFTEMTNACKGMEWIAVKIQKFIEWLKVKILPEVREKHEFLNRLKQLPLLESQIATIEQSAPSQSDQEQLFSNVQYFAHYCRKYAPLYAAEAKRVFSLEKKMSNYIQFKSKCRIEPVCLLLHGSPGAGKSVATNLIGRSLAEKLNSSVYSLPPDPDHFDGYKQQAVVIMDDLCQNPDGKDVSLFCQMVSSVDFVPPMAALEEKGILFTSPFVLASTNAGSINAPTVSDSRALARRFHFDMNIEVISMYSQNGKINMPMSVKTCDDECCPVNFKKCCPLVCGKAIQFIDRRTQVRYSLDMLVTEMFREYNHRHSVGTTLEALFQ

EV-D68, EV-A71, and CVB3 = experiment: organism not typed; format: cell-based; conditions: for EC50: RD, read-out: EC50 values range against all EV-D68 and EV-A71 strains tested
in vitro = conditions: human
EV-D68 US/MO/14-18947 = experiment: microbe, parasite or virus in culture; format: cell-based, enterovirus D68 (EV-D68); conditions: for EC50: Enterovirus D, EVD68, read-out: EC50, viral replication in neuronal cells (immunofluorescence, anti-VP1)
Vero cells = conditions: African green monkey
RD cells = conditions: human
[2] = read-out: EC50, Anti-EV-D68 US/KY/14-18953 in RD cells
[3] = read-out: EC50, EV-D68 US/IL/14-18952 (Clade B2)
[4] = read-out: EC50, EV-D68 US/IL/14-18956 (Clade B2)
[5] = read-out: EC50, EV-D68 US/KY/14-18953 (Clade D)
[6] = read-out: EC50, EV-D68 US/MO/14-18947 (Clade B1)
[7] = read-out: EC50, EV-D68 US/MO/14-18949 (Clade B1)
[8] = read-out: EC50, Anti-EV-A71 Tainan/4643/1998 in RD cells
[9] = read-out: EC50, EV-A71 Tainan/4643/1998
[10] = read-out: EC50, EV-A71 USA/CT/2016-19519
[11] = CC50 (EV-A71 USA/CT/2016-19519)
[12] = CC50 (EV-D68 US/IL/14-18952 row group)
[13] = CC50 (EV-D68 US/IL/14-18956 row group)
[14] = CC50 (EV-D68 US/KY/14-18953 row group)
[15] = CC50 (EV-D68 US/MO/14-18947 row group)
[16] = CC50 (EV-D68 US/MO/14-18949 row group)
[17] = CC50, in RD cells (Anti-EV-A71)
[18] = CC50, in RD cells (Anti-EV-D68)

SMILES	EC50 (EV-D68; [2]) [nM]	EC50 (EV-A71; [8]) [nM]	EC50 (CVB3 Nancy virus) [nM]	CC50 (in vitro; [17]) [nM]	CC50 (Vero cells) [nM]	CC50 (RD cells) [nM]	also measured
CC(C)n1ncc2c(C(=O)NCCN(C)C)cc(C3CC3)nc21 [Compound 7d, 6-cyclopropyl-N-[2-(dimethylamino)ethyl]-1-(propan-2-yl)-1H-pyrazolo[3,4-b]pyridine-4-carboxamide]	100	800	200	200000	–	–	EC50 (EV-D68; [3]): 40 nM; EC50 (EV-D68; [4]): 40 nM; EC50 (EV-D68; [5]): 100 nM; EC50 (EV-D68; [6]): 100 nM; EC50 (EV-D68; [7]): 100 nM; EC50 (EV-A71; read-out: EC50, EV-A71 A71 MP4): 100 nM; EC50 (EV-A71; [9]): 100 nM; EC50 (EV-A71; [10]): 60 nM; binding to EV-A71 2C protein [1]: dose-response binding; binding to CVB3 2C protein (CVB3 Nancy 2C protein): dose-response binding; EC50 values in words (summary across viruses) (EV-D68, EV-A71, and CVB3): nanomolar range; EC50 (EV-D68, EV-A71, and CVB3): 40 to 100 nM; CC50 (in vitro; CC50 (EV-A71 Tainan/4643/1998)): 200000 nM; CC50 (in vitro; [11]): 200000 nM; CC50 (in vitro; [12]): 200000 nM; CC50 (in vitro; [13]): 200000 nM; CC50 (in vitro; [14]): 200000 nM; CC50 (in vitro; [15]): 200000 nM; CC50 (in vitro; [16]): 200000 nM; CC50 (in vitro; [18]): 200000 nM
CNCCNC(=O)c1cc(C2CC2)nc2c1cnn2C(C)C [Compound 7h, 6-cyclopropyl-N-[2-(methylamino)ethyl]-1-(propan-2-yl)-1H-pyrazolo[3,4-b]pyridine-4-carboxamide]	200	200	200	236000	> 100000	–	EC50 (EV-D68; [3]): 200 nM; EC50 (EV-D68; [4]): 200 nM; EC50 (EV-D68; [5]): 200 nM; EC50 (EV-D68; [6]): 200 nM; EC50 (EV-D68; [7]): 200 nM; EC50 (EV-A71; read-out: EC50, EV-A71 A71 MP4): 300 nM; EC50 (EV-A71; [9]): 200 nM; EC50 (EV-A71; [10]): 100 nM; EC50 (EV-D68 US/MO/14-18947): 70 nM; EC50 (EV-D68, EV-A71, and CVB3): 60 to 300 nM; CC50 (in vitro; CC50 (EV-A71 Tainan/4643/1998)): 236000 nM; CC50 (in vitro; [11]): 236000 nM; CC50 (in vitro; [12]): 236000 nM; CC50 (in vitro; [13]): 236000 nM; CC50 (in vitro; [14]): 236000 nM; CC50 (in vitro; [15]): 236000 nM; CC50 (in vitro; [16]): 236000 nM; CC50 (in vitro; [18]): 236000 nM
CC(C)c1cc(C(=O)NCCN(C)C)c2cnn(C(C)C)c2n1 [Compound 10a, N-[2-(dimethylamino)ethyl]-1,6-bis(propan-2-yl)-1H-pyrazolo[3,4-b]pyridine-4-carboxamide]	100	100	40	–	> 300000	–	EC50 (EV-D68; [3]): 90 nM; EC50 (EV-D68; [4]): 70 nM; EC50 (EV-D68; [5]): 100 nM; EC50 (EV-D68; [6]): 70 nM; EC50 (EV-D68; [7]): 80 nM; EC50 (EV-A71; read-out: EC50, EV-A71 A71 MP4): 200 nM; EC50 (EV-A71; [9]): 200 nM; EC50 (EV-A71; [10]): 60 nM; EC50 (EV-D68 US/MO/14-18947): 30 nM; EC50 (EV-D68, EV-A71, and CVB3): 60 to 300 nM
CC(CN(C)C)NC(=O)c1cc(C(C)C)nc2c1cnn2C(C)C (stereo not drawn) [Compound 10c, N-[1-(dimethylamino)propan-2-yl]-1,6-bis(propan-2-yl)-1H-pyrazolo[3,4-b]pyridine-4-carboxamide]	100	1000	100	70300	–	> 100000	–
CNCCNC(=O)c1cc(C(C)C)nc2c1cnn2C(C)C [Compound 10d, N-[2-(methylamino)ethyl]-1,6-bis(propan-2-yl)-1H-pyrazolo[3,4-b]pyridine-4-carboxamide]	400	100	300	> 100000	–	> 100000	–
Cc1cc(C(=O)NC2CCN(C)C2)c2cnn(C(C)C)c2n1 (stereo not drawn) [Compound 12b, 6-methyl-N-(1-methylpyrrolidin-3-yl)-1-(propan-2-yl)-1H-pyrazolo[3,4-b]pyridine-4-carboxamide]	1800	500	800	> 300000	> 300000	> 300000	–
Cc1cc(C(=O)NC2CN(C)C2)c2cnn(C(C)C)c2n1 [Compound 12c, 6-methyl-N-(1-methylazetidin-3-yl)-1-(propan-2-yl)-1H-pyrazolo[3,4-b]pyridine-4-carboxamide]	11300	7300	3800	> 300000	> 300000	> 300000	–
CNCCNC(=O)c1cc(C)nc2c1cnn2C(C)C [Compound 12d, 6-methyl-N-(methylamino)ethyl-1-(propan-2-yl)-1H-pyrazolo[3,4-b]pyridine-4-carboxamide]	2300	500	1400	> 300000	> 300000	> 300000	–
Cc1cc(C(=O)NCCN)c2cnn(C(C)C)c2n1 [Compound 12e, N-(2-aminoethyl)-6-methyl-1-(propan-2-yl)-1H-pyrazolo[3,4-b]pyridine-4-carboxamide]	4700	700	3800	> 300000	> 300000	> 300000	–
CCn1ncc2c(C(=O)NCCN(C)C)cc(C)nc21 [Compound 15a, N-[2-(dimethylamino)ethyl]-1-ethyl-6-methyl-1H-pyrazolo[3,4-b]pyridine-4-carboxamide]	18300	–	–	–	–	> 300000	–
CCn1ncc2c(C(=O)NCCNC)cc(C)nc21 [Compound 15b, 1-ethyl-6-methyl-N-[2-(methylamino)ethyl]-1H-pyrazolo[3,4-b]pyridine-4-carboxamide]	58400	> 20000	–	–	–	> 300000	–
CN(C)CCNC(=O)c1cc(C2CC2)nc2c1cnn2C [Compound 17, 6-cyclopropyl-N-[2-(dimethylamino)ethyl]-1-methyl-1H-pyrazolo[3,4-b]pyridine-4-carboxamide]	–	–	–	–	–	> 300000	–
Cc1cc(CCCOc2c(C)cc(-c3noc(C(F)(F)F)n3)cc2C)on1 [pleconaril, reference compound]	–	–	–	–	–	–	viral replication (VP1 fluorescence signal) (EV-D68 US/MO/14-18947; at 50 μM): completely abolished viral replication
